Experiment [1] has as its target T1, K12 tau (first-generation AD-brain-seeded K12 fibrils) (Homo sapiens, UniProt P10636, C639A).
T1 construct: gene MAPT; 3R fragment; E. coli; amyloid fibrils seeded with Alzheimer's disease brain homogenate, heparin-free
Kind of experiment: fluorescence polarization with K12 fibrils. The settings on record: 10 μM compound; AD-seeded K12 fibrils (monomer equivalents); 250 mM Na3citrate, 10 mM HEPES pH 7.4; 1% DMSO; room temperature; one-step binding fit.

In experiment [2] the target is T1, K12 tau (first-generation AD-brain-seeded K12 fibrils). Kind of experiment: ThT seeded aggregation kinetics ([…]/t1/[…]). The format is biochemical. The settings on record: read-out: KIC50; 5 μM K12 monomer seeded with 50 nM first-generation AD-derived K12 seeds; 250 mM Na3citrate, 10 mM HEPES pH 7.4; 1% DMSO; quiescent; inhibition of fibril formation.

Each structure is given as a SMILES string.

T1 sequence (P10636 561-717 C639A): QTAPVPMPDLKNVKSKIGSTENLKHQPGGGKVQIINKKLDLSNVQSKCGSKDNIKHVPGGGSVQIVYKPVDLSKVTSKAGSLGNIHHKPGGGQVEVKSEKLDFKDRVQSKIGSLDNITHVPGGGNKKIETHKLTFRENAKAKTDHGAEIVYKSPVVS

Turning to `Cc1noc(C2CCN(C(=O)CNC(=O)c3ccccc3)C2)n1` (stereo not shown) [I1.21], the Kd in experiment [1] came to 1580 ± 150 nM. Besides, the IC50 in experiment [2] is 2600 ± 500 nM.

As for `Cc1noc(C2CCN(C(=O)CCCc3ccccc3)CC2)n1` [I1.51], the Kd in experiment [1] amounted to 740 ± 280 nM. Besides, the IC50 in experiment [2] was found to be 7400 ± 5000 nM.

One may read the Kd as the free concentration of one partner at which half of the binding sites on the other are occupied at equilibrium, for simple one-to-one binding.
